Patent US6590123B2, “Aminobenzoic acid derivatives having anti-tumorigenic activity, methods of making and using the same” (Mount Sinai School of Medicine of New York University, priority 1998, dated 2003)
“Also recorded” adds a separate entry of the source.

What was measured:
[1] = system: Purified tubulin; assay: Inhibition of microtubule assembly by spectrophotometry, cell free system; format: biochemical, calf; details: cell free tubulin; for inhibition of microtubule assembly: 1 μg/ml (3.3 μM for 3-BAABU)
Method: Purified tubulin was purchased from Sigma (St. Louis, Mo.). The effects of compounds 6, 7, 8, 9, paclitaxel and vinblastine on the microtubule assembly-disassembly process were determined using conditions recommended by the vendor. For assembly inhibition, 100 μl tubulin solution (500-600 μg protein/ml) was mixed gently with 400 μl reaction buffer containing 0.1 M MES (2-[N-morpholino]ethane sulfonic acid), 1 mM EGTA ([…]-N,N,N′,N′-tetraacetic acid), 0.5 mM MgCl2, 0.1 mM EDTA and 2.5 M gycerol at 37° C. Compounds 6, 7, 8, and 9 were next added to each sample at final concentrations of 10, 10, 1 and 1 μg/ml, respectively. After adding GTP to each sample to a final concentration of 1 mM, the microtubule assembly process was monitored by measuring the change of absorbance (OD) at 350 nm on a spectrophotometer (Ultrospec III, Pharmacia LKB, Uppsala, Sweden). A completed assembly process was observed within 40 min at room temperature. For disassembly inhibition, compounds 6, 7, 8, and 9 were added, at the above concentrations, to covets with repolymerized microtubules as described above, and incubated in melting ice. Changes of absorbance (OD) were monitored at 350 nm for 30 min until the OD values in the controls returned to the starting level, i.e., when the assembly-disassembly cycle was completed.
Purified tubulin from calf brain was purchased from Sigma (St. Louis, Mo.). The effects of 3-BAABU (3-bromoacetoamido, benzoylurea) on the microtubule assembly-disassembly process were determined using the conditions recommended by the vendor. For assembly inhibition, 100 μl tubulin solution (500-600 μg protein/ml) was mixed gently with 400 μl reaction buffer containing 0.1 M MES, 1 mM EGTA, 0.5 mM MgCl2, 0.1 mM EDTA and 2.5 M glycerol at 37° C. 3-BAABU, paclitaxel or vinblastine were then added to each sample cuvet at final concentrations of 3.3, 23 or 22 μM, respectively. After adding GTP to each sample to a final concentration of 1 mM, the microtubule assembly process was monitored by measuring the change of absorbance (OD) every 5 min at 350 nm on a spectrophotometer (Ultrospec III, Pharmacia LKB, Uppsala, Sweden). A completed assembly process was observed within 40 min at room temperature. For disassembly inhibition, 3-BAABU (3.3 μM), paclitaxel (23 μM) or vinblastine (22 μM) was added to a cuvet with repolymerized microtubules according to the method described above, and incubated in melting ice. Changes of absorbance (OD) were monitored at 350 nm for 30 min until the OD values in the controls returned to the starting level, i.e., completion of the assembly-disassembly cycle. Solvent solutions were used as control and had no effect in either the assembly or disassembly process.

[2] = system: P338 leukemia lymphoma cells; assay: Survival and ED50 in mice implanted i.p. with P338 lymphoma; format: in vivo, male C57 BL/6JX mice; details: for ED50: P338 leukemia lymphoma i.p. in mice, drug i.p. on days 2 and 8
Method: FIG. 9 is a plot graph of the survival rate of male C57 BL/6JX mice implanted (i.p.) with P338 lymphoma, from 10 to 40 days after implantation. Two groups were used for the study: a control group of ten and a test group of ten that were treated with 20 mg/kg, (i.p.) of compound 8 at 2 and 8 days post-implantation.
(§1) The in vivo efficacy of 3-BAABU and 3-IAABU of the present invention was asssessed in a murine model, along with known anti-tubule agents, vinblastine and paclitaxel, as a comparative standard. Approximately 10^6 P338 leukemia lymphoma cells/mouse were implanted intra-peritoneal (i.p.) into male C57 BL/6JX mice (Jackson Laboratories, N.Y.). On days 2 and 8 post-implantation, drugs were administrated i.p. at the following concentration ranges: 3-BAABU from 16.6 to 116 μmole/kg, 3-IAABU from 14.4 to 101 μmole/kg, vinblastine from 2.2 to 20 μmole/kg and paclitaxel from 28 to 57 μmole/kg.
(§2) Both control and treated animals were examined for ascitic tumor burden daily for 35 days. […] Therapeutic index was defined as the ratio of LD50 (lethal dose) to ED50 (effective dose).

[3] = LD50 (lethal dose) in mice; details: mouse, in vivo, ip
Excerpt: as §1, §2

[4] = system: CEM cells; assay: Morphology by microscopy (mitotic arrest, apoptosis, necrosis); format: cell-based, human; set-up: key to Block of Mitosis: +Block of mitosis was observed; −no mitotic blocking; details: for mitotic arrest (blocking) effect, morphological appearance / Mitotic arrest, % / apoptosis by morphology: CEM cells; for mitotic arrest (blocking) effect, morphological appearance: 24 h, compound 8 at 0.025 μg/ml, compound 9 at 0.005 μg/ml; for Mitotic arrest, %: % of mitotic cells after 24 h incubation, optical microscopy; for apoptosis by morphology: treatment prolonged to 48 h; for morphological effect on leukemic cells / Activities of inducing Apoptosis / Activities of inducing Mitotic block / Activities of inducing Necrosis: CEM leukemic cells; for Activities of inducing Apoptosis / Activities of inducing Mitotic block / Activities of inducing Necrosis: % of affected cells
Method: Slides for examination of mitosis were prepared on a cytospin centrifuge (Shandon Southern Products Ltd, England ) at 700 g for 5 min. Slides were air dried, fixed in methanol and stained with Giemsa (Harleco, N.J.) at room temperature for 15 min. Cells in mitotic arrest were recognized by the disappearance of nuclear membrane and by the appearance of chromosomal scattering throughout the cytoplasm (reference 1). The % of mitotic cells were counted after 24 h incubation using optical microscopy. Apoptotic cells were identified using common criteria, i.e., shrinkage in cell size, chromatin condensation and fragmentation of the nucleus into discrete masses (reference 2).
Cell samples on slides were prepared by a Cytospin centrifuge (Shandon Southern Products Ltd, England) at 700 g for 5 min. The slides were air dried, fixed in methanol and stained with Giemsa (Harleco, N.J.) at room temperature for 15 min. Alterations of nuclei, membranes and morphological features were observed by light microscopy. Cells in mitotic phase were recognized by the appearance of their chromosomes dispersed in the cytoplasm, and by the disappearance of nuclear membrane. Apoptotic-cells were identified using previously defined criteria, i.e., shrinkage in cell size, chromatin condensation and fragmentation of the nucleus into discrete masses (references 2 & 3). Necrotic cells were differentiated from apoptotic cells by observing swollen cytoplasm and the disappearance of cell membrane prior to the destruction of the nucleus.

SMILES | inhibition of microtubule assembly [1] | inhibition of microtubule assembly ([1]; listed as 3-BAABU) | Survival IL % ([2]; P338 Lymphoma (i.p.), 20 mg/kg ip on days 2 & 8) | Survival Mean ± SD ([2]; P338 Lymphoma (i.p.), 20 mg/kg ip on days 2 & 8, control 18.6 ± 1.1) | ED50 [2] | LD50 [3] | mitotic arrest (blocking) effect, morphological appearance [4] | Mitotic arrest, % [4] | apoptosis by morphology [4] | morphological effect on leukemic cells [4] | Activities of inducing Apoptosis [4] | Activities of inducing Mitotic block [4] | Activities of inducing Necrosis [4] | Block of Mitosis ([4]; CEM, Human T-cell Leukemia, 37° C. for 48 hr) | effect on microtubule assembly ([1]; up to 10 μg/ml)
NC(=O)NC(=O)c1cccc(NC(=O)CBr)c1 [Compound 8, 3-Bromoacetoamido, benzoylurea] | complete inhibition; also recorded: completely inhibited | Complete inhibition | 54% | 28.6 ± 5.2 | 27 µmol/kg | about 90 μmole/kg | main features of mitotic arrest | >85% | complete apoptosis | induced mitotic arrest | ++++ (++++: >75%) | ++++ (++++: >75%) | − (−:<10%) | + | –
NC(=O)NC(=O)c1cccc(NC(=O)CI)c1 [Compound 9, 3-Iodoacetoamido, benzoylurea] | complete inhibition; also recorded: completely inhibited | – | – | – | 26 µmol/kg | about 90 μmole/kg | main features of mitotic arrest | >85% | complete apoptosis | – | – | – | – | – | –
NC(=O)NC(=O)c1cccc(NC(=O)CCl)c1 [Compound 7, 3-Chloroacetoamido, benzoylurea] | – | – | – | – | – | – | minor | – | – | also induced mitotic arrest but with less disorganization | ++ (++: 25-50%) | + (+10-25%) | − (−:<10%) | – | very weak inhibitory effect; also recorded: no effect
